These compounds were tested against T1, human fibroblast collagenase (Homo sapiens, UniProt P03956) (assay: Inhibition of Human Fibroblast Collagenase (in vitro, H-Pro-Met-Ala-Leu-Trp-NHCH3 substrate, fluorescamine detection)). Details: trypsin-activated enzyme 25 nM; substrate 375 μM; pH 7.5; DMSO not exceeding 5%; 90 minutes; calculated from competitive inhibitor equation; read-out: IC50 (half-maximal inhibitory concentration), Inhibition of Human Fibroblast Collagenase.
T1 construct: made in house; host or cells: human fibroblast (native enzyme by its name)
T1 sequence (P03956 100-469): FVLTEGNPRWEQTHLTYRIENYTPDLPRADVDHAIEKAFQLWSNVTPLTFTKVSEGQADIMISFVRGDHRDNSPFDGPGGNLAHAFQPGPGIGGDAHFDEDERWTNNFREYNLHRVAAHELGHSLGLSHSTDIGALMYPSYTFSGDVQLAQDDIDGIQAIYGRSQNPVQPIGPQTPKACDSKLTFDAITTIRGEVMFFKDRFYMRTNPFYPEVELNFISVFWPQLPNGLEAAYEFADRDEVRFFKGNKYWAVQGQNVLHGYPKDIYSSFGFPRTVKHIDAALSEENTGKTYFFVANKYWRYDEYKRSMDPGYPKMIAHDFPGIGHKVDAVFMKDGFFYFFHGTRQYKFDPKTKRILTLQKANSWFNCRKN
Format: biochemical
Method: As stated above the compounds of Formula I are matrix-metalloprotease inhibitors useful in treatment of disease in which matrix-metalloprotease promoted connective tissue remodelling is a causative factor, for example, rheumatoid arthritis and cancer.
Human fibroblast collagenase was purified as described by Fields et al. (The Journal of Biological Chemistry, vol. 262, pp. 6221-6226, 1987), activated with trypsin and used at a concentration of 25 nM. H-Pro-Met-Ala-Leu-Trp-NHCH3 (Netzel-Arnett et al., The Journal of Biological Chemistry, vol 266, pp. 6747-6755, 1991) was used as substrate at a concentration of 375 μM. Fluorescamine was used to detect the products of enzymolysis. […] Product concentrations were measured at intervals throughout the test period (90 minutes). The half-maximal inhibitory concentration (IC50) of the test compound was calculated from the equation for a competitive inhibitor using percent inhibition values between 20% and 80%. The products of parts B and C of example 2 and parts B and C. of example 3 were tested and the following results were obtained.

Row | IC50 [nM] | Compound
1 | 8800 | CC(C)C[C@H](CC(=O)O)C(=O)N[C@@H](Cc1c[nH]c2ccccc12)C(=O)NCCSCCN(C)C [Example 2B]
2 | 20 | CC(C)C[C@H](CC(=O)NO)C(=O)N[C@@H](Cc1c[nH]c2ccccc12)C(=O)NCCSCCN(C)C [Example 2C]
3 | 4500 | CC(C)C[C@H](CC(=O)O)C(=O)N[C@@H](Cc1c[nH]c2ccccc12)C(=O)NCCSCCN1CCOCC1 [Example 3B]
4 | 15 | CC(C)C[C@H](CC(=O)NO)C(=O)N[C@@H](Cc1c[nH]c2ccccc12)C(=O)NCCSCCN1CCOCC1 [Example 3C]

Source: patent US5256657A, “Succinamide derivative matrix-metalloprotease inhibitors” (Sterling Winthrop, Inc., priority 1991, dated 1993)
